Counter-ions that a name gives are not always drawn.
Test system: patients with seasonal allergic rhinitis (SAR)
Test: MP 428 study: individual symptom severity scores (runny nose, itchy nose, sneezing, congestion; 0-3 scale)
Type: in vivo, human
Conditions: Intent-to-Treat Population
Method: A two-week, randomized, double-blind study, which evaluated the effects of the co-administration of ASTELIN® (azelastine hydrochloride (HCl)) and FLONASE® (fluticasone propionate) compared to either product alone in patients with seasonal allergic rhinitis (SAR) was conducted during the 2006 Texas mountain cedar season. After a 5-day placebo lead-in period, 151 patients with moderate-to-severe allergic rhinitis symptoms were randomized to either: (1) (49 total patients) ASTELIN® (azelastine hydrochloride (HCl)) plus placebo saline nasal spray 2 sprays per nostril, 15 minutes apart, twice daily (AM & PM); (2) (50 total patients) FLONASE® (fluticasone propionate) plus placebo saline nasal spray, 2 sprays per nostril, 15 minutes apart, once daily (AM) and two sessions of placebo saline nasal spray, 2 sprays per nostril, 15 minutes apart (PM); or (3) (52 total patients) the co-administration of ASTELIN® (azelastine hydrochloride (HCl)) 2 sprays per nostril plus FLONASE® (fluticasone propionate) 2 sprays per nostril (AM), 15 minutes apart, and ASTELIN® (azelastine hydrochloride (HCl)) 2 sprays per nostril plus placebo saline nasal spray, 15 minutes apart, (PM) for a 2-week double-blind treatment period.
The primary efficacy variable was the change from baseline in the Total Nasal Symptom Score (TNSS), which comprised sneezing, itchy nose, runny nose, and nasal congestion (individual symptoms scores were assigned a value between 0 and 3, where 0=no symptoms and 3=severe symptoms). This study was not statistically designed to assess the differences between ASTELIN® and FLONASE®.
The results of the clinical trial are summarized and presented in Appendix A hereinbelow and in FIGS. 1-6. […] FIGS. 2-5 show the mean improvement in severity score (0-3 scale) from baseline for the symptoms of runny nose, itchy nose, sneezing and congestion, respectively.

SMILES: CN1CCCC(n2nc(Cc3ccc(Cl)cc3)c3ccccc3c2=O)CC1 (racemic) [Azelastine, (±)-1-(2H)-phthalazinone, 4-[(4-chlorophenyl)methyl]-2-(hexahydro-1-methyl-1H-azepin-4-yl)-, mono-hydrochloride]
- Percent Change from Baseline in AM and PM Combined Nasal Symptom Score: Congestion, LS Mean (Day 5): −18.24%
- Percent Change from Baseline in AM and PM Combined Nasal Symptom Score: Congestion, Mean (Day 5): −18.92%
- Percent Change from Baseline in AM and PM Combined Nasal Symptom Score: Congestion, Median (Day 5): −16.67%
- Percent Change from Baseline in AM and PM Combined Nasal Symptom Score: Itchy Nose, LS Mean (Day 5): −24.75%
- Percent Change from Baseline in AM and PM Combined Nasal Symptom Score: Itchy Nose, Mean (Day 5): −24.24%
- Percent Change from Baseline in AM and PM Combined Nasal Symptom Score: Itchy Nose, Median (Day 5): −15.49%
- Percent Change from Baseline in AM and PM Combined Nasal Symptom Score: Runny Nose, LS Mean (Day 5): −18.46%
- Percent Change from Baseline in AM and PM Combined Nasal Symptom Score: Runny Nose, Mean (Day 5): −18.42%
- Percent Change from Baseline in AM and PM Combined Nasal Symptom Score: Runny Nose, Median (Day 5): −11.76%
- Percent Change from Baseline in AM and PM Combined Nasal Symptom Score: Sneezing, LS Mean (Day 5): −33.21%
- Percent Change from Baseline in AM and PM Combined Nasal Symptom Score: Sneezing, Mean (Day 5): −32.23%
- Percent Change from Baseline in AM and PM Combined Nasal Symptom Score: Sneezing, Median (Day 5): −25.23%
- Change from Baseline in AM and PM Combined Nasal Symptom Score: Congestion, LS Mean (Day 6): −1.04
- Change from Baseline in AM and PM Combined Nasal Symptom Score: Congestion, Mean (Day 6): −1.09
- Change from Baseline in AM and PM Combined Nasal Symptom Score: Congestion, Median (Day 6): −0.92
- Change from Baseline in AM and PM Combined Nasal Symptom Score: Itchy Nose, LS Mean (Day 6): −1.14
- Change from Baseline in AM and PM Combined Nasal Symptom Score: Itchy Nose, Mean (Day 6): −1.14
- Change from Baseline in AM and PM Combined Nasal Symptom Score: Itchy Nose, Median (Day 6): −0.73
- Change from Baseline in AM and PM Combined Nasal Symptom Score: Runny Nose, LS Mean (Day 6): −0.94
- Change from Baseline in AM and PM Combined Nasal Symptom Score: Runny Nose, Mean (Day 6): −0.95
- Change from Baseline in AM and PM Combined Nasal Symptom Score: Runny Nose, Median (Day 6): −1.00
- Change from Baseline in AM and PM Combined Nasal Symptom Score: Sneezing, LS Mean (Day 6): −1.27
- Change from Baseline in AM and PM Combined Nasal Symptom Score: Sneezing, Mean (Day 6): −1.26
- Change from Baseline in AM and PM Combined Nasal Symptom Score: Sneezing, Median (Day 6): −1.30
- Percent Change from Baseline in AM and PM Combined Nasal Symptom Score: Congestion, LS Mean (Day 6): −18.26%
- Percent Change from Baseline in AM and PM Combined Nasal Symptom Score: Congestion, Mean (Day 6): −18.97%
- Percent Change from Baseline in AM and PM Combined Nasal Symptom Score: Congestion, Median (Day 6): −18.37%
- Percent Change from Baseline in AM and PM Combined Nasal Symptom Score: Itchy Nose, LS Mean (Day 6): −24.98%
- Percent Change from Baseline in AM and PM Combined Nasal Symptom Score: Itchy Nose, Mean (Day 6): −25.00%
- Percent Change from Baseline in AM and PM Combined Nasal Symptom Score: Itchy Nose, Median (Day 6): −15.49%
- Percent Change from Baseline in AM and PM Combined Nasal Symptom Score: Runny Nose, LS Mean (Day 6): −18.89%
- Percent Change from Baseline in AM and PM Combined Nasal Symptom Score: Runny Nose, Mean (Day 6): −18.89%
- Percent Change from Baseline in AM and PM Combined Nasal Symptom Score: Runny Nose, Median (Day 6): −21.74%
- Percent Change from Baseline in AM and PM Combined Nasal Symptom Score: Sneezing, LS Mean (Day 6): −32.36%
- Percent Change from Baseline in AM and PM Combined Nasal Symptom Score: Sneezing, Mean (Day 6): −31.52%
- Percent Change from Baseline in AM and PM Combined Nasal Symptom Score: Sneezing, Median (Day 6): −28.00%
- Change from Baseline in AM and PM Combined Nasal Symptom Score: Congestion, LS Mean (Day 7): −1.17
- Change from Baseline in AM and PM Combined Nasal Symptom Score: Congestion, Mean (Day 7): −1.23
- Change from Baseline in AM and PM Combined Nasal Symptom Score: Congestion, Median (Day 7): −1.00
- Change from Baseline in AM and PM Combined Nasal Symptom Score: Itchy Nose, LS Mean (Day 7): −1.18
- Change from Baseline in AM and PM Combined Nasal Symptom Score: Itchy Nose, Mean (Day 7): −1.17
- Change from Baseline in AM and PM Combined Nasal Symptom Score: Itchy Nose, Median (Day 7): −0.90
- Change from Baseline in AM and PM Combined Nasal Symptom Score: Runny Nose, LS Mean (Day 7): −0.93
- Change from Baseline in AM and PM Combined Nasal Symptom Score: Runny Nose, Mean (Day 7): −0.95
- Change from Baseline in AM and PM Combined Nasal Symptom Score: Runny Nose, Median (Day 7): −1.07
- Change from Baseline in AM and PM Combined Nasal Symptom Score: Sneezing, LS Mean (Day 7): −1.76
- Change from Baseline in AM and PM Combined Nasal Symptom Score: Sneezing, Mean (Day 7): −1.75
- Change from Baseline in AM and PM Combined Nasal Symptom Score: Sneezing, Median (Day 7): −1.55
- Percent Change from Baseline in AM and PM Combined Nasal Symptom Score: Congestion, LS Mean (Day 7): −21.14%
- Percent Change from Baseline in AM and PM Combined Nasal Symptom Score: Congestion, Mean (Day 7): −22.02%
- Percent Change from Baseline in AM and PM Combined Nasal Symptom Score: Congestion, Median (Day 7): −18.37%
- Percent Change from Baseline in AM and PM Combined Nasal Symptom Score: Itchy Nose, LS Mean (Day 7): −26.35%
- Percent Change from Baseline in AM and PM Combined Nasal Symptom Score: Itchy Nose, Mean (Day 7): −25.83%
- Percent Change from Baseline in AM and PM Combined Nasal Symptom Score: Itchy Nose, Median (Day 7): −21.57%
- Percent Change from Baseline in AM and PM Combined Nasal Symptom Score: Runny Nose, LS Mean (Day 7): −18.66%
- Percent Change from Baseline in AM and PM Combined Nasal Symptom Score: Runny Nose, Mean (Day 7): −18.92%
- Percent Change from Baseline in AM and PM Combined Nasal Symptom Score: Runny Nose, Median (Day 7): −25.00%
- Percent Change from Baseline in AM and PM Combined Nasal Symptom Score: Sneezing, LS Mean (Day 7): −40.66%
- Percent Change from Baseline in AM and PM Combined Nasal Symptom Score: Sneezing, Mean (Day 7): −39.73%
- Percent Change from Baseline in AM and PM Combined Nasal Symptom Score: Sneezing, Median (Day 7): −38.78%
- Change from Baseline in AM and PM Combined Nasal Symptom Score: Congestion, LS Mean (Day 8): −1.24
- Change from Baseline in AM and PM Combined Nasal Symptom Score: Congestion, Mean (Day 8): −1.27
- Change from Baseline in AM and PM Combined Nasal Symptom Score: Congestion, Median (Day 8): −1.00
- Change from Baseline in AM and PM Combined Nasal Symptom Score: Itchy Nose, LS Mean (Day 8): −1.15
- Change from Baseline in AM and PM Combined Nasal Symptom Score: Itchy Nose, Mean (Day 8): −1.12
- Change from Baseline in AM and PM Combined Nasal Symptom Score: Itchy Nose, Median (Day 8): −0.83
- Change from Baseline in AM and PM Combined Nasal Symptom Score: Runny Nose, LS Mean (Day 8): −1.23
- Change from Baseline in AM and PM Combined Nasal Symptom Score: Runny Nose, Mean (Day 8): −1.25
- Change from Baseline in AM and PM Combined Nasal Symptom Score: Runny Nose, Median (Day 8): −1.00
- Change from Baseline in AM and PM Combined Nasal Symptom Score: Sneezing, LS Mean (Day 8): −1.74
- Change from Baseline in AM and PM Combined Nasal Symptom Score: Sneezing, Mean (Day 8): −1.73
- Change from Baseline in AM and PM Combined Nasal Symptom Score: Sneezing, Median (Day 8): −1.55
- Percent Change from Baseline in AM and PM Combined Nasal Symptom Score: Congestion, LS Mean (Day 8): −22.22%
- Percent Change from Baseline in AM and PM Combined Nasal Symptom Score: Congestion, Mean (Day 8): −22.68%
- Percent Change from Baseline in AM and PM Combined Nasal Symptom Score: Congestion, Median (Day 8): −18.64%
- Percent Change from Baseline in AM and PM Combined Nasal Symptom Score: Itchy Nose, LS Mean (Day 8): −25.37%
- Percent Change from Baseline in AM and PM Combined Nasal Symptom Score: Itchy Nose, Mean (Day 8): −24.80%
- Percent Change from Baseline in AM and PM Combined Nasal Symptom Score: Itchy Nose, Median (Day 8): −18.92%
- Percent Change from Baseline in AM and PM Combined Nasal Symptom Score: Runny Nose, LS Mean (Day 8): −24.85%
- Percent Change from Baseline in AM and PM Combined Nasal Symptom Score: Runny Nose, Mean (Day 8): −24.97%
- Percent Change from Baseline in AM and PM Combined Nasal Symptom Score: Runny Nose, Median (Day 8): −25.00%
- Percent Change from Baseline in AM and PM Combined Nasal Symptom Score: Sneezing, LS Mean (Day 8): −38.54%
- Percent Change from Baseline in AM and PM Combined Nasal Symptom Score: Sneezing, Mean (Day 8): −37.78%
- Percent Change from Baseline in AM and PM Combined Nasal Symptom Score: Sneezing, Median (Day 8): −33.33%
